ChEMBL document CHEMBL1144796, “Carbonic anhydrase inhibitors. Interaction of indapamide and related diuretics with 12 mammalian isozymes and X-ray crystallographic studies for the indapamide-isozyme II adduct” (Bioorg Med Chem Lett, 2008)
pKi: −log10 of the molar value.

Experiments:
[1] = target: Carbonic anhydrase 2 (Homo sapiens) (UniProt P00918)
[2] = target: Carbonic anhydrase 9 (Homo sapiens) (UniProt Q16790)
[3] = target: Carbonic anhydrase 5B, mitochondrial (Homo sapiens) (UniProt Q9Y2D0)
Chain of Carbonic anhydrase 5B, mitochondrial (Homo sapiens) (Q9Y2D0 whole entry): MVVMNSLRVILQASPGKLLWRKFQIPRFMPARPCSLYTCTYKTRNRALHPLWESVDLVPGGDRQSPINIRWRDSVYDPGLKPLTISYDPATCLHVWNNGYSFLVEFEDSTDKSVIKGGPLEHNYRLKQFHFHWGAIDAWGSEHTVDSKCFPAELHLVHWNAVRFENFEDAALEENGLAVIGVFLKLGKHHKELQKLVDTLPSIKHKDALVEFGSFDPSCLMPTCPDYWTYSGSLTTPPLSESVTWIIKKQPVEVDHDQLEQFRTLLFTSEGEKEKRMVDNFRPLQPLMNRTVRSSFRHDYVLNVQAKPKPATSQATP

[4] = target: Carbonic anhydrase 14 (Homo sapiens) (UniProt Q9ULX7)
Chain of Carbonic anhydrase 14 (Homo sapiens) (Q9ULX7 whole entry): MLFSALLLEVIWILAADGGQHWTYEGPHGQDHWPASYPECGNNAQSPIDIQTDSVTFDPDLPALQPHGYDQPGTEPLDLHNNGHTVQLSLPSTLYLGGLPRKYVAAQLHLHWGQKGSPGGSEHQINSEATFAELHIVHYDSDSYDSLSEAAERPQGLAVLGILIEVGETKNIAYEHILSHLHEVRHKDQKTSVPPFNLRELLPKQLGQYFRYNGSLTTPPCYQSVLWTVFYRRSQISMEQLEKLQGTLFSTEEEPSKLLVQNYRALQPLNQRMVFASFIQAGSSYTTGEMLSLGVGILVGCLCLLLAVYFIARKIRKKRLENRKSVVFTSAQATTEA

[5] = target: Carbonic anhydrase 3 (Homo sapiens) (UniProt P07451)
Chain of Carbonic anhydrase 3 (Homo sapiens) (P07451 whole entry): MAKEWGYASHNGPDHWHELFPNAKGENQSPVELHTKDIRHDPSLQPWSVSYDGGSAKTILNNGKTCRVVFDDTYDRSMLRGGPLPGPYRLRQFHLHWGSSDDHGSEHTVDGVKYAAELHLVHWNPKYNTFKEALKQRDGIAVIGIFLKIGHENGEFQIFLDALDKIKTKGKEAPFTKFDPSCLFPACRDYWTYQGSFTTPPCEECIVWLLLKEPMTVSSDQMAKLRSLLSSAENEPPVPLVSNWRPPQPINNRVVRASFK

[6] = target: Carbonic anhydrase 13 (Mus musculus) (UniProt Q9D6N1); experiment: Inhibition of mouse full length carbonic anhydrase 13
Chain of Carbonic anhydrase 13 (Mus musculus) (Q9D6N1 whole entry, looked up): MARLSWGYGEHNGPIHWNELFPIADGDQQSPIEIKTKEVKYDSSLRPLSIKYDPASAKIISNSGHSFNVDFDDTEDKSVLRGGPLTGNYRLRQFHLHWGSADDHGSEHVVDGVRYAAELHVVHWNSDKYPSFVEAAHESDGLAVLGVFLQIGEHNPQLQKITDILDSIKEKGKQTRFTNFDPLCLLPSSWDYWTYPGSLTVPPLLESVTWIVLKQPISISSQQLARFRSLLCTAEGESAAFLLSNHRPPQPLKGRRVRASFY

[7] = target: Carbonic anhydrase 4 (Homo sapiens) (UniProt P22748)
Chain of Carbonic anhydrase 4 (Homo sapiens) (P22748 whole entry): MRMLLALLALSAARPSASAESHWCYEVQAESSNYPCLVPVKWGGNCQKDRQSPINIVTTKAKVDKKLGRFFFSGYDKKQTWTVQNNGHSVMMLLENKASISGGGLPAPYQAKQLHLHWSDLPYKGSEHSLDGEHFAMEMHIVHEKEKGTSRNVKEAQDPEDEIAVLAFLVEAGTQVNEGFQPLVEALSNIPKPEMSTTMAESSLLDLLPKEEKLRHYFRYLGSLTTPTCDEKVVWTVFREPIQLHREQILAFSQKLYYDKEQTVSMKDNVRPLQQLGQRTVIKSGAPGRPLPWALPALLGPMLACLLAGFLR

[8] = target: Carbonic anhydrase 6 (Homo sapiens) (UniProt P23280)
Chain of Carbonic anhydrase 6 (Homo sapiens) (P23280 whole entry): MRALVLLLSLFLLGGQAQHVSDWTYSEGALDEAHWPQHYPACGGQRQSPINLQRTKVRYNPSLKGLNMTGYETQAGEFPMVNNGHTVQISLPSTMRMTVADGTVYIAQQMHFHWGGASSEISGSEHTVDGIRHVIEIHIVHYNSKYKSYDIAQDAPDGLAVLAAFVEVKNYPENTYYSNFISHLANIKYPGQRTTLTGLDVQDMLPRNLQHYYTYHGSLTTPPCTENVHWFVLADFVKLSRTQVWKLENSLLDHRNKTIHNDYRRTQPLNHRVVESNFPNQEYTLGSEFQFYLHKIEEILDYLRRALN

[9] = target: Carbonic anhydrase 12 (Homo sapiens) (UniProt O43570)
Chain of Carbonic anhydrase 12 (Homo sapiens) (O43570 whole entry): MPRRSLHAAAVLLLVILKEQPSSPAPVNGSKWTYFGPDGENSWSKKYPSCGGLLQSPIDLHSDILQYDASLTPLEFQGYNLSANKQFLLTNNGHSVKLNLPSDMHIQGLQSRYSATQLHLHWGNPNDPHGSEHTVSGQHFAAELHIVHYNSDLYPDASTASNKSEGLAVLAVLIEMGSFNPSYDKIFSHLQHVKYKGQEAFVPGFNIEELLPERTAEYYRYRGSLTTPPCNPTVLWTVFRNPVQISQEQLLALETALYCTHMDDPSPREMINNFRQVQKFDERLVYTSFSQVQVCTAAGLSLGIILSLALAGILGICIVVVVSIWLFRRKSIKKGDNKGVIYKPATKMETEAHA

[10] = target: Carbonic anhydrase 5A, mitochondrial (Homo sapiens) (UniProt P35218)
Chain of Carbonic anhydrase 5A, mitochondrial (Homo sapiens) (P35218 whole entry): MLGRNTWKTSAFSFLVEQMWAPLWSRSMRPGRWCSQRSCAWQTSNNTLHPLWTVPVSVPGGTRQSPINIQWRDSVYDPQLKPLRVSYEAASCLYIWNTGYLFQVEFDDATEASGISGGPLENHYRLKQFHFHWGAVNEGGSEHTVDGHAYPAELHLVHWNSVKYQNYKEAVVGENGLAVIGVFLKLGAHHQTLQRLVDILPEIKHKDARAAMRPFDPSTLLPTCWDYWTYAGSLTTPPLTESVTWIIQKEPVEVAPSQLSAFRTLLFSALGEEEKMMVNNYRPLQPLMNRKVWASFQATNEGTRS

[11] = target: Carbonic anhydrase 7 (Homo sapiens) (UniProt P43166)
Chain of Carbonic anhydrase 7 (Homo sapiens) (P43166 whole entry): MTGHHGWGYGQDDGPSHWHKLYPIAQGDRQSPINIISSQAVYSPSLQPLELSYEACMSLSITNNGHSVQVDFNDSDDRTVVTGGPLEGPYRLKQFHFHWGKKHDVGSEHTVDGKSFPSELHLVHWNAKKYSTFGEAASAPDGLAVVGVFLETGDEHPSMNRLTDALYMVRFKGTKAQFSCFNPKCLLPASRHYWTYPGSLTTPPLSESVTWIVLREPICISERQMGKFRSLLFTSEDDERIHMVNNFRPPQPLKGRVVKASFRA

`CCC1NC(=O)c2cc(S(N)(=O)=O)c(Cl)cc2N1` (stereo not drawn) was tested, and the pKi [1] was 5.90.
`Cc1ccccc1N1C(=O)c2cc(S(N)(=O)=O)c(Cl)cc2NC1C` (stereo not drawn) gave a pKi [2] of 6.49, a pKi [3] of 6.51 and a pKi [4] of 5.27. For the same molecule, the Ki [5] was > 2 10^5nM, the pKi [6] was 7.82 and the pKi [7] was 6.67. For the same molecule, the pKi [8] was 5.77, the pKi [9] was 8.27 and the pKi [1] was 5.70. For the same molecule, the pKi [10] was 6.12.
In the case of `CC(=O)/N=c1/sc(S(N)(=O)=O)nn1C`, the Ki [5] was > 2 10^5nM.
In the case of `CCCCNc1cc(C(=O)O)cc(S(N)(=O)=O)c1Oc1ccccc1`, the pKi [2] was 7.59, the pKi [3] was 6.80 and the pKi [4] was 6.60. The Ki [5] was > 2 10^5nM, the pKi [6] was 5.59 and the pKi [7] was 6.52. The pKi [8] was 5.41, the pKi [9] was 7.68 and the pKi [11] was 7.21. It also gave a pKi [1] of 5.16 and a pKi [10] of 6.15.
`NS(=O)(=O)c1cc(C2(O)NC(=O)c3ccccc32)ccc1Cl` (stereo not drawn) was tested, and the pKi [2] was 7.64, the pKi [3] was 8.05 and the pKi [4] was 5.38. For the same molecule, the pKi [6] was 7.82, the pKi [7] was 6.71 and the pKi [8] was 5.87. For the same molecule, the pKi [11] was 8.55, the pKi [1] was 6.86 and the pKi [10] was 6.04.
`CC1Nc2cc(C(F)(F)F)c(S(N)(=O)=O)cc2S(=O)(=O)N1C` (stereo not drawn) gave a pKi [2] of 6.39, a pKi [3] of 6.37 and a pKi [4] of 6.44. For the same molecule, the Ki [5] was > 2 10^5nM, the pKi [6] was 4.81 and the pKi [7] was 5.32. For the same molecule, the pKi [8] was 5.08, the pKi [9] was 6.52 and the pKi [11] was 6.36. It also gave a pKi [1] of 6.36 and a pKi [10] of 4.99.
Molecule `CC1Nc2cc(Cl)c(S(N)(=O)=O)cc2S(=O)(=O)N1C` (stereo not drawn) has a pKi [2] of 6.44, a pKi [3] of 6.22 and a pKi [4] of 5.39. For the same molecule, the Ki [5] was > 2 10^5nM, the pKi [6] was 5.41 and the pKi [7] was 6.37. For the same molecule, the pKi [8] was 5.44, the pKi [9] was 6.45 and the pKi [10] was 5.37.
In the case of `NS(=O)(=O)c1cc(C(=O)O)c(NCc2ccco2)cc1Cl`, the Ki [5] was > 2 10^5nM.
